Laboratory results published in patent US9676761B2, “Difluoroethyl-oxazole substituted bridged spiro[2.4]heptane derivatives as ALX receptor agonists” (ACTELION PHARMACEUTICALS LTD, priority 2013, dated 2017).

Key:
human ALX receptor = target: T1, human ALX receptor (Homo sapiens, UniProt P25090); test: FLIPR assay (ALX receptor), intracellular calcium measurements in HEK293-hALXR-Gα16 cells; type: cell-based; conditions: median of n replications, normalized to WKYMVm 10 nM, read-out: EC50 (agonistic activity with respect to the ALX receptor)
T1 construct: expressed in transfected cells; host or cells: HEK293 (HEK293-hALXR-Gα16)
T1 sequence (P25090 1-351): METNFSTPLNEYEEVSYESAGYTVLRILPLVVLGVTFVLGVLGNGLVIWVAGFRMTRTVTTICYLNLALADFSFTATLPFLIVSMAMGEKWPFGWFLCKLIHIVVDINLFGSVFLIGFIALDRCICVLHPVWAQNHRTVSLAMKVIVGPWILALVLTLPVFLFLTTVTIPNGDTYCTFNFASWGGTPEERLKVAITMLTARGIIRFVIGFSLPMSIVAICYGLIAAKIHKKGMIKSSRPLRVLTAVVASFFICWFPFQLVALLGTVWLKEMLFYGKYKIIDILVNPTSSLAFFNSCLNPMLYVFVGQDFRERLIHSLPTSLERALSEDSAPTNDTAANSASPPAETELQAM
Description: FLIPR Assay (ALX Receptor)
(§1) Intracellular Calcium Measurements:
(§2) Cells expressing recombinant human ALX receptor and the G-protein Gα16 (HEK293-hALXR-Gα16) were grown to 80% confluency in Growing Medium (GM). Cells were detached from culture dishes with a cell dissociation buffer (Invitrogen, 13151-014), and collected by centrifugation at 1,000 rpm at rt for 5 min in Assay Buffer (AB) (equal parts of Hank's BSS (Gibco, 14065-049) and DMEM without Phenol Red (Gibco, 11880-028)). After 60 min incubation at 37° C. under 5% CO2 in AB supplemented with 1 μM Fluo-4 (AM) (Invitrogen, F14202) and 20 mM HEPES (Gibco, 15630-056), the cells were washed and resuspended in AB. They were then seeded onto 384-well FLIPR assay plates (Greiner, 781091) at 50,000 cells in 70 μl per well and sedimented by centrifugation at 1,000 rpm for 1 min. Stock solutions of test compounds were made up at a concentration of 10 mM in DMSO, and serially diluted in AB to concentrations required for activation dose response curves. WKYMVm (Phoenix Peptides) was used as a reference agonist. […] Changes in fluorescence were monitored before and after the addition of test compounds at lex=488 nm and lem=540 nm. […]

human FPR1 receptor = target: T2, human FPR1 receptor (Homo sapiens, UniProt P21462); test: FLIPR assay (FPR1 receptor), intracellular calcium measurements in HEK293-hFPR1-Gα16 cells; type: cell-based; conditions: median of n replications, normalized to WKYMVm 10 nM, read-out: EC50 (agonistic activity with respect to the FPR1 receptor)
T2 construct: expressed in transfected cells; host or cells: HEK293 (HEK293-hFPR1-Gα16)
T2 sequence (P21462 1-350): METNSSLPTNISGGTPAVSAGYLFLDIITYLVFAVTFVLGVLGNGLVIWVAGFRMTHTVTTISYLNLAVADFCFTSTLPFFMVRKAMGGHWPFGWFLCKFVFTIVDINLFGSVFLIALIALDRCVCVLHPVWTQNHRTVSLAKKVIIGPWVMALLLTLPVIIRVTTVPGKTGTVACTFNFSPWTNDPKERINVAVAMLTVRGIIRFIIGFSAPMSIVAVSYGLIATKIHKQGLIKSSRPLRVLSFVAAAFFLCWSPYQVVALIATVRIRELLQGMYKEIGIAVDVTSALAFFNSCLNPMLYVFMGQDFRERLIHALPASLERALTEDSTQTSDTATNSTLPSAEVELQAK
Description: FLIPR Assay (FPR1 Receptor)
as §1
as §2, with “FPR1” for “ALX”, “(HEK293-hFPR1-Gα16)” for “(HEK293-hALXR-Gα16)”

[1] = Plasma stability assay (stability in serum), human; type: in vitro ADME; conditions: pH 7.4, 37° C., 1 μM compound; for remaining concentration at Tlast: Tlast 6 h
Description: (§3) Rat or human serum adjusted at pH 7.4 with lactic acid or ammonium hydroxide, were equilibrated at 37° C. under orbital shaking in an incubator containing 5% CO2. The reaction was initiated by the addition of 1 μM of compounds (1 μl of 1 mM stock solution in DMSO in 999 μl of plasma). At 0.01 h, 0.25 h, 0.5 h, 1 h, 2 h, 4 h and 6 h aliquots (30 μl) were transferred in a 96 well plate containing 90 μl MeOH placed on ice to stop the reaction. After vortexing for 20 min at 1400 rpm on an Eppendorf thermomixer, the plates were centrifuged at 3220 g for 20 min at 4° C. and the supernatants were analyzed with LC-MS/MS. Calibration samples in serum containing 0.1% of dichlorvos (2,2-dichlorovinyl-dimethyl-phosphate) were prepared and analysed in parallel to the incubation samples to allow the quantification. Half lives (T1/2) in hours were then calculated. In addition the remaining concentration of the respective compound after time Tlast relative to the concentration at the beginning has been determined (table 3).

[2] = Plasma stability assay (stability in serum), rat; type: in vitro ADME; conditions: pH 7.4, 37° C., 1 μM compound; for remaining concentration at Tlast: Tlast 6 h
Description: as §3

[3] = Plasma protein binding assay (Rapid Equilibrium Dialysis), human; type: in vitro ADME; conditions: 1 μM, dialysis 4 h at 37° C., pH 7.4
Description: Plasma Protein Binding Assay
Compounds were added to human plasma adjusted at pH 7.4 with lactic acid or ammonium hydroxide (final concentration 1 μM) and dialyzed with RED (Rapid Equilibrium Dialysis) devices against Phosphate Buffered Saline (0.1M sodium Phosphate and 0.15 M sodium chloride) 0.1 M pH 7.4 for 4 h at 37° C. in an incubator containing 5% CO2. Following dialysis, an aliquot of plasma and buffer were diluted with an equal volume of the opposite matrix to nullify the matrix effect and a calibration was prepared in the mixed matrix. Aliquots of samples and calibrations (30 μl) were transferred in a 96 well plate containing 90 μl MeOH to precipitate the proteins. After vortexing for 20 min at 1400 rpm on an Eppendorf thermomixer, the plates were centrifuged at 3220 g for 20 min at 4° C. and the supernatants were analyzed with LC-MS/MS. Concentrations of analyte were used for the calculation of the fraction bound to plasma. Propranolol [(±)-1-isopropylamino-3-(1-naphthyloxy)-2-propanol], a reference compound, was run in parallel.

[4] = Plasma protein binding assay (Rapid Equilibrium Dialysis), rat; type: in vitro ADME; conditions: 1 μM, dialysis 4 h at 37° C., pH 7.4

## (1S,2R,3R,4R)—N^2—((4-(1,1-Difluoroethyl)oxazol-2-yl)methyl)-N^3-(trans-3-fluoropiperidin-4-yl)spiro[bicyclo[2.2.1]heptane-7,1′-cyclopropane]-2,3-dicarboxamide [Example 1]
Human ALX receptor
  EC50: 6.6 nM
Human FPR1 receptor
  EC50: > 6000 nM
[1]
  remaining concentration at Tlast: 97%
  T1/2: >6 h
[2]
  remaining concentration at Tlast: >100%
  T1/2: >6 h
[3]
  Plasma protein binding: 54.8%
[4]
  Plasma protein binding: 50.7%

## (1S,2R,3R,4R)—N^2—((4-(1,1-Difluoroethyl)oxazol-2-yl)methyl)-N^3-(trans-3-fluoropiperidin-4-yl)spiro[bicyclo[2.2.1]heptane-7,1′-cyclopropane]-2,3-dicarboxamide [Example 2]
Human ALX receptor
  EC50: 3.6 nM
Human FPR1 receptor
  EC50: > 7000 nM
[1]
  remaining concentration at Tlast: >100%
  T1/2: >6 h
[2]
  remaining concentration at Tlast: >100%
  T1/2: >6 h
[3]
  Plasma protein binding: 63.8%
[4]
  Plasma protein binding: 47.7%
